Earlier results, collected in US11771641B2, “Method for dyeing keratinous material by means of a premix of aminosilicone and a chromophoric compound” (Henkel AG & Co. KGaA, priority 2019, dated 2023).

Details: 25° C.

solubility in water | solubility in water (in words) | Compound
more than 20 % by weight | – | CCN(Cc1cccc(S(=O)(=O)O)c1)c1ccc(C(=C2C=CC(=[N+](CC)Cc3cccc(S(=O)(=O)O)c3)C=C2)c2ccccc2S(=O)(=O)[O-])cc1 [Acid Blue 9]
above 40 g/L | – | O=[N+]([O-])c1cc([N+](=O)[O-])c2ccc(S(=O)(=O)O)cc2c1O [Acid Yellow 9, 8-hydroxy-5,7-dinitro-2-naphthalenesulfonic acid]
– | highly soluble | O=C(O)C1=NN(c2ccc(S(=O)(=O)O)cc2)C(=O)C1N=Nc1ccc(S(=O)(=O)O)cc1 (stereo not shown) [Acid Yellow 23, 4,5-dihydro-5-oxo-1-(4-sulfophenyl)-4-((4-sulfophenyl)azo)-1H-pyrazole-3-carboxylic acid]

Compound | solubility in water | solubility in water (in words)
O=S(=O)(O)c1ccc(N=Nc2c(O)ccc3ccccc23)cc1 [Acid Orange 7, 4-[(2-hydroxy-1-naphthyl)azo]benzene sulphonate] | more than 7 g/L | –
